# Experiments:
# [1] = tested on: mixed inoculum of bacteria; assay: MIC and synergy (K) in nutrient broth, microtiter plates; assay type: cell-based
# Description: Stock solutions of each product were prepared in sterile distilled water. Synergism was measured by the method first described by F. C. Kull, P. C. Eisman, H. D. Sylwestrowicz and R. L. Mayer in Applied Microbiology, 9, 538-41 ([…]). This manner of determining synergism has been widely used and is industrially acceptable. It is believed that the specified method is sufficient in explaining the process. However for a further description, reference can be made to U.S. Pat. No. 3,231,509 and its file history, where this type of data was considered acceptable.
# • 1. Incubator capable of maintaining a variable temperature range (25-45 C) • 2. Samples of each biocide or test compound to be examined • 3. Microtiter plates—96 well with lid, sterile. • 4. 8-12 channel micropipetting device capable of pipetting 0-250 ul volumes • 5. Micropipette tips capable of holding up to 250 ul volumes • 6. Sterile microbiological culture broth. Trypticase Soy Broth (TSB) or Nutrient Broth (NB) is recommended for bacteria and Sabouraud Maltose Broth (SMB) or Sabouraud Dextrose Broth (SDB) is recommended for yeasts and molds. In the case of this particular study the microbiological culture medium was Nutrient Broth at pH 7.0, 8.0 and 9.0. • 7. Pure cultures of microorganisms of choice grown on appropriate agar medium • 8. Sterile distilled water • 9. 100 mL volumetric flasks (one for each biocide to be tested) • 10. Sterile 10 mL tubes of Phosphate buffer (Butterfield's buffer pH 7.2+/−0.2). Contains purified water, monobasic potassium phosphate and sodium hydroxide for pH adjustment. • 11. Sterile cotton swabs • 12. 0.5 MacFarland Turbidity Standard
# The day before testing, perform a streak plate of each organism to be tested on an appropriate agar medium (Trypticase Soy Agar). Organisms tested in this study were: Wild strain bacteria isolated from previously contaminated industrial systems and which were identified as: Pseudomonas sp., Escherchia coli , Enterobacter sp., Alcaligenes sp. and Alcaligenes faecalis. On the day of the test, use a sterile cotton swab to harvest some of the growth. Place swab into a tube containing 10 mL sterile phosphate buffer. Compare and adjust the turbidity of the organisms in the tube to 1×10^8 cfu/mL using a 0.5 MacFarland Turbidity Standard. Dilute the 10 mL tube into 90 mL of sterile 2× nutrient broth at pH 7.0, 8.0 and 9.0.
# 1. Design the layout of the microtiter plates based on the number of organisms to test and the number of biocides and desired concentrations to test. A separate microtiter plate is required for testing each biocide alone, in addition to the combination microtiter plate. 2. Prepare a working stock solution of each biocide to be tested. For the combination microtiter plate, the working stock solution of Biocide A will be 8× the concentration desired in the first well of the combination microtiter plate. The working stock solution of Biocide B will be 4× the concentration desired in the first well of the combination microtiter plate. For the alone microtiter plates, the working stock solutions of Biocide A and Biocide B will both be 4× the concentration desired in the first well of the single biocide microtiter plates.
# Dodecylguanidine hydrochloride: (For combination plates) A solution of this product which is 35% active, was made as follows: […]=8000 ppm active=8000/0.35=22,857 ppm, 2.28 g into 100 mL sterile diH2O. Levels to test are: 1000 ppm, 500 ppm, 250 ppm, 125 ppm, 62.5 ppm, 31.2 ppm, 15.6 ppm, 7.8 ppm, 3.9 ppm, 1.95 ppm
# Ortho-PhenylPhenol: (For combination plates) Make a solution of this product which is 99% active, 4×125=500 ppm active=500/0.99=505 ppm, 0.05 g into 100 mL MeOH and sterile diH2O. Level to test is 125 ppm.
# 3. Place 50 ul of sterile distilled water in all of the rows in columns 1 through 10, and 100 ul of sterile distilled water in all of the rows in columns 11 and 12 of the 96 well combination microtiter plate. […]
# [2] = tested on: wild strain bacteria isolated from previously contaminated systems; assay: In-Can Preservation Test of paint samples; assay type: cell-based; conditions: for Effective Preservative (ppm): two inoculation challenge; as to Microbial growth, 1st Inoculation, 1st sub-column: key: 4 = Heavy Microbial Growth; 3 = Moderate Microbial Growth; 2 = Slight Microbial Growth; 1 = Trace Microbial Growth; 0 = No Microbial Growth; as to Microbial growth, 1st Inoculation, 2nd sub-column: key: 4 = Heavy Microbial Growth; 3 = Moderate Microbial Growth; 2 = Slight Microbial Growth; 1 = Trace Microbial Growth; 0 = No Microbial Growth; as to Microbial growth, 2nd Inoculation, 1st sub-column: key: 4 = Heavy Microbial Growth; 3 = Moderate Microbial Growth; 2 = Slight Microbial Growth; 1 = Trace Microbial Growth; 0 = No Microbial Growth; as to Microbial growth, 2nd Inoculation, 2nd sub-column: key: 4 = Heavy Microbial Growth; 3 = Moderate Microbial Growth; 2 = Slight Microbial Growth; 1 = Trace Microbial Growth; 0 = No Microbial Growth
# Description: Preservation Testing was performed on the three paint samples: Acrylic Flat, Acrylic and Vinyl Acrylic. Each sample was treated with various levels OPP, DGH individually and a mixture of OPP and DGH. All samples were then inoculated with wild strain bacteria isolated from previously contaminated systems. Following the initial inoculation, the samples were reinoculated on day 7. This testing scenario best simulates what happens in a “real world” situation. […]
# [3] = Table 2 paint (Acrylic Flat / Vinyl Acrylic Flat), 1000 ppm
# [4] = Table 2 paint (Acrylic Flat / Vinyl Acrylic Flat), 1500 ppm
# [5] = Table 2 paint (Acrylic Flat / Vinyl Acrylic Flat), 2000 ppm
# [6] = Table 2 paint (Acrylic Flat / Vinyl Acrylic Flat), 2500 ppm
# [7] = Table 2 paint (Acrylic Flat / Vinyl Acrylic Flat), 3000 ppm
# [8] = Table 2 paint (Acrylic Flat / Vinyl Acrylic Flat), 3500 ppm
# [9] = Table 2 paint (Acrylic Flat / Vinyl Acrylic Flat), 4000 ppm
# [10] = Table 3 paint (Vinyl Acrylic Flat / Acrylic Flat), 1000 ppm
# [11] = Table 3 paint (Vinyl Acrylic Flat / Acrylic Flat), 1500 ppm
# [12] = Table 3 paint (Vinyl Acrylic Flat / Acrylic Flat), 2000 ppm
# [13] = Table 3 paint (Vinyl Acrylic Flat / Acrylic Flat), 2500 ppm
# [14] = Table 3 paint (Vinyl Acrylic Flat / Acrylic Flat), 3000 ppm
# [15] = Table 3 paint (Vinyl Acrylic Flat / Acrylic Flat), 3500 ppm
# [16] = Table 3 paint (Vinyl Acrylic Flat / Acrylic Flat), 4000 ppm
compound,measurement,setting,value
"Oc1ccccc1-c1ccccc1 [OPP, Ortho-PhenylPhenol]",MIC,"[1]; pH 7, read-out: MIC, biocide alone",> 1000 µg/mL
same,Synergy Index,"[1]; pH 8.0, 1000 ppm NaOPP alone (0:100)",1.00
same,Synergy Index,"[1]; pH 9.0, 500 ppm NaOPP alone (0:100)",1.00
same,Effective Preservative (ppm),[2]; Acrylic Flat paint,>4000 ppm
same,"Microbial growth, 1st Inoculation, 1st sub-column","[2]; Acrylic paint, 1000 ppm",3
same,"Microbial growth, 1st Inoculation, 2nd sub-column","[2]; Acrylic paint, 1000 ppm",3
same,"Microbial growth, 2nd Inoculation, 1st sub-column","[2]; Acrylic paint, 1000 ppm",3
same,"Microbial growth, 2nd Inoculation, 2nd sub-column","[2]; Acrylic paint, 1000 ppm",3
same,"Microbial growth, 1st Inoculation, 1st sub-column","[2]; Acrylic paint, 1500 ppm",3
same,"Microbial growth, 1st Inoculation, 2nd sub-column","[2]; Acrylic paint, 1500 ppm",3
same,"Microbial growth, 2nd Inoculation, 1st sub-column","[2]; Acrylic paint, 1500 ppm",3
same,"Microbial growth, 2nd Inoculation, 2nd sub-column","[2]; Acrylic paint, 1500 ppm",3
same,"Microbial growth, 1st Inoculation, 1st sub-column","[2]; Acrylic paint, 2000 ppm",3
same,"Microbial growth, 1st Inoculation, 2nd sub-column","[2]; Acrylic paint, 2000 ppm",3
same,"Microbial growth, 2nd Inoculation, 1st sub-column","[2]; Acrylic paint, 2000 ppm",3
same,"Microbial growth, 2nd Inoculation, 2nd sub-column","[2]; Acrylic paint, 2000 ppm",3
same,"Microbial growth, 1st Inoculation, 1st sub-column","[2]; Acrylic paint, 2500 ppm",3
same,"Microbial growth, 1st Inoculation, 2nd sub-column","[2]; Acrylic paint, 2500 ppm",3
same,"Microbial growth, 2nd Inoculation, 1st sub-column","[2]; Acrylic paint, 2500 ppm",3
same,"Microbial growth, 2nd Inoculation, 2nd sub-column","[2]; Acrylic paint, 2500 ppm",3
same,"Microbial growth, 1st Inoculation, 1st sub-column","[2]; Acrylic paint, 3000 ppm",3
same,"Microbial growth, 1st Inoculation, 2nd sub-column","[2]; Acrylic paint, 3000 ppm",3
same,"Microbial growth, 2nd Inoculation, 1st sub-column","[2]; Acrylic paint, 3000 ppm",3
same,"Microbial growth, 2nd Inoculation, 2nd sub-column","[2]; Acrylic paint, 3000 ppm",3
same,"Microbial growth, 1st Inoculation, 1st sub-column","[2]; Acrylic paint, 3500 ppm",3
same,"Microbial growth, 1st Inoculation, 2nd sub-column","[2]; Acrylic paint, 3500 ppm",3
same,"Microbial growth, 2nd Inoculation, 1st sub-column","[2]; Acrylic paint, 3500 ppm",3
same,"Microbial growth, 2nd Inoculation, 2nd sub-column","[2]; Acrylic paint, 3500 ppm",3
same,"Microbial growth, 1st Inoculation, 1st sub-column","[2]; Acrylic paint, 4000 ppm",3
same,"Microbial growth, 1st Inoculation, 2nd sub-column","[2]; Acrylic paint, 4000 ppm",3
same,"Microbial growth, 2nd Inoculation, 1st sub-column","[2]; Acrylic paint, 4000 ppm",3
same,"Microbial growth, 2nd Inoculation, 2nd sub-column","[2]; Acrylic paint, 4000 ppm",3
same,Effective Preservative (ppm),[2]; Acrylic paint,>4000 ppm
same,"Microbial growth, 1st Inoculation, 1st sub-column",[2]; [3],3
same,"Microbial growth, 1st Inoculation, 2nd sub-column",[2]; [3],3
same,"Microbial growth, 2nd Inoculation, 1st sub-column",[2]; [3],3
same,"Microbial growth, 2nd Inoculation, 2nd sub-column",[2]; [3],3
same,"Microbial growth, 1st Inoculation, 1st sub-column",[2]; [4],3
same,"Microbial growth, 1st Inoculation, 2nd sub-column",[2]; [4],3
same,"Microbial growth, 2nd Inoculation, 1st sub-column",[2]; [4],3
same,"Microbial growth, 2nd Inoculation, 2nd sub-column",[2]; [4],3
same,"Microbial growth, 1st Inoculation, 1st sub-column",[2]; [5],3
same,"Microbial growth, 1st Inoculation, 2nd sub-column",[2]; [5],3
same,"Microbial growth, 2nd Inoculation, 1st sub-column",[2]; [5],3
same,"Microbial growth, 2nd Inoculation, 2nd sub-column",[2]; [5],3
same,"Microbial growth, 1st Inoculation, 1st sub-column",[2]; [6],3
same,"Microbial growth, 1st Inoculation, 2nd sub-column",[2]; [6],3
same,"Microbial growth, 2nd Inoculation, 1st sub-column",[2]; [6],3
same,"Microbial growth, 2nd Inoculation, 2nd sub-column",[2]; [6],3
same,"Microbial growth, 1st Inoculation, 1st sub-column",[2]; [7],3
same,"Microbial growth, 1st Inoculation, 2nd sub-column",[2]; [7],3
same,"Microbial growth, 2nd Inoculation, 1st sub-column",[2]; [7],3
same,"Microbial growth, 2nd Inoculation, 2nd sub-column",[2]; [7],3
same,"Microbial growth, 1st Inoculation, 1st sub-column",[2]; [8],3
same,"Microbial growth, 1st Inoculation, 2nd sub-column",[2]; [8],3
same,"Microbial growth, 2nd Inoculation, 1st sub-column",[2]; [8],3
same,"Microbial growth, 2nd Inoculation, 2nd sub-column",[2]; [8],3
same,"Microbial growth, 1st Inoculation, 1st sub-column",[2]; [9],3
same,"Microbial growth, 1st Inoculation, 2nd sub-column",[2]; [9],3
same,"Microbial growth, 2nd Inoculation, 1st sub-column",[2]; [9],3
same,"Microbial growth, 2nd Inoculation, 2nd sub-column",[2]; [9],3
same,"Microbial growth, 1st Inoculation, 1st sub-column",[2]; [10],2
same,"Microbial growth, 1st Inoculation, 2nd sub-column",[2]; [10],2
same,"Microbial growth, 2nd Inoculation, 1st sub-column",[2]; [10],2
same,"Microbial growth, 2nd Inoculation, 2nd sub-column",[2]; [10],2
same,"Microbial growth, 1st Inoculation, 1st sub-column",[2]; [11],2
same,"Microbial growth, 1st Inoculation, 2nd sub-column",[2]; [11],2
same,"Microbial growth, 2nd Inoculation, 1st sub-column",[2]; [11],2
same,"Microbial growth, 2nd Inoculation, 2nd sub-column",[2]; [11],2
same,"Microbial growth, 1st Inoculation, 1st sub-column",[2]; [12],2
same,"Microbial growth, 1st Inoculation, 2nd sub-column",[2]; [12],2
same,"Microbial growth, 2nd Inoculation, 1st sub-column",[2]; [12],2
same,"Microbial growth, 2nd Inoculation, 2nd sub-column",[2]; [12],2
same,"Microbial growth, 1st Inoculation, 1st sub-column",[2]; [13],2
same,"Microbial growth, 1st Inoculation, 2nd sub-column",[2]; [13],2
same,"Microbial growth, 2nd Inoculation, 1st sub-column",[2]; [13],2
same,"Microbial growth, 2nd Inoculation, 2nd sub-column",[2]; [13],2
same,"Microbial growth, 1st Inoculation, 1st sub-column",[2]; [14],2
same,"Microbial growth, 1st Inoculation, 2nd sub-column",[2]; [14],2
same,"Microbial growth, 2nd Inoculation, 1st sub-column",[2]; [14],2
same,"Microbial growth, 2nd Inoculation, 2nd sub-column",[2]; [14],2
same,"Microbial growth, 1st Inoculation, 1st sub-column",[2]; [15],2
same,"Microbial growth, 1st Inoculation, 2nd sub-column",[2]; [15],1
same,"Microbial growth, 2nd Inoculation, 1st sub-column",[2]; [15],2
same,"Microbial growth, 2nd Inoculation, 2nd sub-column",[2]; [15],1
same,"Microbial growth, 1st Inoculation, 1st sub-column",[2]; [16],2
same,"Microbial growth, 1st Inoculation, 2nd sub-column",[2]; [16],0
same,"Microbial growth, 2nd Inoculation, 1st sub-column",[2]; [16],2
same,"Microbial growth, 2nd Inoculation, 2nd sub-column",[2]; [16],0
same,Effective Preservative (ppm),[2]; Vinyl Acrylic Flat paint,4000 ppm

# Source: patent US20100160445A1, “Synergistic Mixtures of OPP and DGH” (priority 2002, published 2010)
